The results in this text go back to patent US5206234A, “Benzolactam analogs as antagonists of CCK” (priority 1991, dated 1993).

In experiment [1] the target is T1, Gastrin receptor (Gastric Glands) (Cavia porcellus, UniProt H0VZC5).
T1 construct: from tissue; host or cells: gastric mucosal glands of male Hartley guinea pigs
T1 sequence (H0VZC5 1-426): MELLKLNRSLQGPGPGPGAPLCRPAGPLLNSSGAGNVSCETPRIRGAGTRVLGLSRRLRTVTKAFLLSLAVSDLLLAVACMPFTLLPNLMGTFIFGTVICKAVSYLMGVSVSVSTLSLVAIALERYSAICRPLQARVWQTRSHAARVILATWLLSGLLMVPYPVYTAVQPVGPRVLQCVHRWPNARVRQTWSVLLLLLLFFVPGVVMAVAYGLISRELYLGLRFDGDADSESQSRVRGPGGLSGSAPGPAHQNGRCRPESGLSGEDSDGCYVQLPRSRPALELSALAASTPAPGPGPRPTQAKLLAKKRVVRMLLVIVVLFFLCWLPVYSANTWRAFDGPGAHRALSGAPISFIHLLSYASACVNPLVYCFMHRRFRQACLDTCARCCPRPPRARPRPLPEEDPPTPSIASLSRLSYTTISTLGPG
The experiment can be described thus: Gastrin Receptor Binding in Guinea Pig Gastric Glands. Also on record: species or system guinea pig (male Hartley). The conditions noted are these: head prints ^25 I-Gastrin, read-out: Receptor binding IC50, 125I-Gastrin Gastric Glands. As for the experimental part:
Guinea pig gastric mucosal glands were prepared by the procedure of Berglingh and Obrink Acta Physiol. Scand. 96: 150 (1976) with a slight modification according to Praissman et al. C. J. Receptor Res. 3: (1983). Gastric mucosa from guinea pigs (300-500 g body weight, male Hartley) were washed thoroughly and minced with fine scissors in standard buffer consisting of the following: 130 mM NaCl, 12 mM NaHCO3, 3 mM NaH2 PO4, 3 mM Na2 HPO4, 3 mM K2 HPO4, 2 mM MgSO4, 1 mM CaCl2, 5 mM glucose and 4 mM L-glutamine, 25 mM HEPES at pH 7.4. The minced tissues were washed and then incubated in a 37° C. shaker bath for 40 minutes with the buffer containing 0.1% collagenase and 0.1% BSA and bubbled with 95% O2 and 5% CO2. The tissues were passed twice through a 5 ml glass syringe to liberate the gastric glands, and then filtered through 200 mesh nylon. The filtered glands were centrifuged at 270 g for 5 minutes and washed twice by resuspension and centrifugation.
The washed guinea pig gastric glands prepared as above were resuspended in 25 ml of standard buffer containing 0.25 mg/ml of bacitracin. For binding studies, to 220 μl of gastric glands in triplicate tubes, 10 μl of buffer (for total binding) or gastrin (1 μM final concentration, for nonspecific binding) or test compound and 10 μl of ^125 I-gastrin (NEN, 2200 Ci/mmole, 25 pM final) or ^3 H-pentagastrin (NEN 22 Ci/mmole, 1 nM final) were added. The tubes were aerated with 95% O2 and 5% CO2 and capped. The reaction mixtures after incubation at 25° C. for 30 minutes were filtered under reduced pressure on glass G/F B filters (Whatman) and immediately washed further with 4×4 ml of standard buffer containing 0.1% BSA. The radioactivity on the filters was measured using a Beckman gamma 5500 for ^125 I-gastrin or liquid scintillation counting for ^3 H-pentagastrin.

In a further experiment the target is T2, CCK receptor (Pancreas) (Rattus norvegicus, UniProt P30551).
T2 construct: The whole pancreas was dissected free of fat tissue and was homogenized; from tissue; host or cells: pancreas membranes of male Sprague-Dawley rats
T2 sequence (P30551 1-444): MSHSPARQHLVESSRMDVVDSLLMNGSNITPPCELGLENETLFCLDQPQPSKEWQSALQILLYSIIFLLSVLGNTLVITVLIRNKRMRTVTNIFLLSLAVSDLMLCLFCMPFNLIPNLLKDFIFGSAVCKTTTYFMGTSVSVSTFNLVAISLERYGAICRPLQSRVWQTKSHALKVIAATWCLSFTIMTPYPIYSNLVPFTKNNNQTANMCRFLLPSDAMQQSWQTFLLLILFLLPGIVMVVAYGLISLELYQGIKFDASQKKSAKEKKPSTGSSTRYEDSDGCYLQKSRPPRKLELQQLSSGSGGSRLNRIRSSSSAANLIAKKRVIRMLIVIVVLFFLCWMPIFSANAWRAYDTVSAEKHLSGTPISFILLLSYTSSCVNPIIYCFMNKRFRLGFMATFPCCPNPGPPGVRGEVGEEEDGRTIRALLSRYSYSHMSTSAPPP
The experiment can be described thus: CCK Receptor Binding (Pancreas), inhibition of 125I-CCK-33 binding. More on the design: species or system rat (Male Sprague-Dawley). The note with it: for pIC50: 125I-CCK-33, rat pancreas membranes; for Effect on the 125I-CCK receptor binding assay: added as protease inhibitors. As for the experimental part: CCK-33 was radiolabeled with ^125 I-Bolton Hunter reagent (2000 Ci/mmole) as described by Sankara et al. (J. Biol. Chem. 254: 9349-9351, 1979). Receptor binding was performed according to Innis and Snyder (Proc. Natl. Acad. Sci. 77, 6917-6921, 1980) with the minor modification of adding the additional protease inhibitors, phenylmethane sulfonyl fluoride and o-phenanthroline. The latter two compounds have no effect on the ^125 I-CCK receptor binding assay.
Male Sprague-Dawley rats (200-350 g) were sacrificed by decapitation. The whole pancreas was dissected free of fat tissue and was homogenized in 20 volumes of ice-cold 50 mM Tris HCl (pH 7.7 at 25° C.) with a Brinkmann Polytron PT 10. The homogenates were centrifuged at 48,000 g for 10 min. Pellets were resuspended in Tris Buffer, centrifuged as above and resuspended in 200 volumes of binding assay buffer (50 mM Tris HCl, pH 7.7 at 25° C., 5 mM dithiothrietol, 0.1 mM bacitracin, 1.2 mM phenylmethane sulfonyl fluoride and 0.5 mM o-phenanthroline). […] All assays were run in duplicate or triplicate. The reaction mixtures were incubated at 37° C. for 30 minutes and centrifuged in a Beckman Microfuge (4 minutes) immediately after adding 1 ml of ice-cold incubation buffer. The supernatant was aspirated and discarded, pellets were counted with a Beckman gamma 5000. For Scatchard analysis (Ann. N.Y. Acad. Sci. 51: 660, 1949), ^125 I-CCK-33 was progressively diluted with increasing concentrations of CCK-33.
A Ki value (dissociation constant of inhibitor) of the compounds of Formula I was estimated.

The target of experiment [2] is T3, CCK receptor (Brain, cerebral cortex) (Cavia porcellus, UniProt H0VZC5).
T3 construct: Cerebral cortex was dissected and used as a receptor source; from tissue; host or cells: cerebral cortex membranes of male Hartley guinea pigs
T3 sequence (H0VZC5 1-426): T1 sequence (H0VZC5 1-426)
Description: CCK Receptor Binding (Brain), inhibition of 125I-CCK-33 binding. The note with it: head prints ^25 I-CCK; guinea pig cerebral cortex. Also on record: species or system guinea pig (Male Hartley). On the procedure: CCK-33 was radiolabeled and the binding was performed according to the description for the pancreas method with modifications according to Saito et al., J. Neurochem. 37:483-490, 1981.
Male Hartley guinea pigs (300-500 g) were sacrificed by decapitation and the brains were removed and placed in ice-cold 50 mM Tris HCl plus 7.58 g/l Trizma-7.4 (pH 7.4 at 25° C.). Cerebral cortex was dissected and used as a receptor source. Each gram of fresh guinea pig brain tissue was homogenized in 10 ml of Tris/Trizma buffer with a Brinkman polytron PT-10. The homogenates were centrifuged at 42,000 g for 15 minutes. Pellets were resuspended in Tris Buffer, centrifuged as above and resuspended in 200 volumes of binding assay buffer (10 mM N-2-hydroxyethyl-piperazine-N'-2-ethane sulfonic acid (HEPES), 5 mM MgCl2, 0.25 mg/ml bacitracin, 1 mM ethylene glycol-bis-(β-aminoethylether-N,N'-tetraacetic acid) (EGTA), and 0.4% bovine serum albumin (BSA)). […] All assays were run in duplicate or triplicate. The reaction mixtures were incubated at 25° C. for 2 hours and centrifuged in a Beckman Microfuge (4 minutes) immediately after adding 1 ml of ice-cold incubation buffer. The supernatant was aspirated and discarded, pellets were counted with a Beckman gamma 5000.

Another experiment concerns anxiety (mice). The experiment can be described thus: Black/white exploration test (anxiolytic activity). The class given is in vivo, mouse (male DBA2). The source says: The black/white exploration test [Crawley et al. Pharmacology, Biochemistry and Behav. 13, 167 (1980)] is a simple animal model of anxiety. Rodents placed in a two compartment box which consists of a brightly lit, white painted side and a dimly lit, black painted side, display a marked preference for the black side of the apparatus. This behavior is caused by the aversive properties of the brightly lit, white painted section. Classical anxiolytic drugs [such as diazepam, see Crawley, supra] and novel anxiolytic drugs [such as 5HT3 antagonists, see Jones et al. Br. J. Pharm.
A. Naive male DBA2 mice (25-30) were housed on a reversed light/dark cycle and tested during the dark phase of the cycle under dim red light. The apparatus consisted of an open topped box (40 cm long×27 cm wide×27 cm high) divided into a small area (2/5) and a large area (3/5) by a partition that extended 20 cm above the walls. There was a 7.5×7.5 cm opening in the partition at floor level. The small compartment was painted black and the large compartment white. The floor of each compartment was marked into 9 cm squares. The white compartment was illuminated by a 100 W tungsten bulb 17 cm above the box and the black compartment by a similarly placed 60 W red bulb.
Animals that had been injected with drug or vehicle were placed individually into the centre of the white area and their behavior observed during a 5 minute period by remote video recording. Four behavioral parameters were recorded every minute: the number of exploratory rears in the white and black sections, the number of line crossings in the black and white sections, the number of transitions between the two sections and the time spent in the black and white sections. Animals were tested in treatment groups of 8-10 and vehicle controls were run on each test day. Data were analysed by ANOVA and Dunnetts test.

pIC50: −log10 of the molar value.

For the compound `Cc1ccc(NC(=O)NC2CCc3ccccc3N(CC(=O)OC(C)(C)C)C2=O)cc1` (centres unmarked) [Example 12], the pIC50 is 6.89 in experiment [1], 6.77 on CCK receptor (Pancreas) and 6.18 in experiment [2].
The corresponding values for `O=C(Nc1cccc2ccccc12)NC1CCc2ccccc2N(CC(=O)N2CCCC2)C1=O` (centres unmarked) [Example 11, 1-{[2,3,4,5-Tetrahydro-3-{[[(1-naphthalenyl)amino]carbonyl]amino}-2-oxo-1H-1-benzazepin-1-yl]acetyl}pyrrolidine] are 6.34, 5.77 and 6.19.
`O=S(=O)(F)Cc1ccccc1` [phenylmethane sulfonyl fluoride, reference compound]: the “Effect on the 125I-CCK receptor binding assay” value on CCK receptor (Pancreas) is on record as “no effect”.
As for `Cc1cccc(NC(=O)NC2CCc3ccccc3N(CC(=O)N3CCCC3)C2=O)c1` (centres unmarked) [Example 6, 1-{[2,3,4,5-Tetrahydro-3-{[[(3-methylphenyl)amino]carbonyl]amino}-2-oxo-1H-1-benzazepin-1-yl]acetyl}pyrrolidine], the pIC50 at CCK receptor (Pancreas) was 7.10.
Take `COc1cccc(NC(=O)NC2CCc3ccccc3N(CC(=O)O)C2=O)c1` (centres unmarked) [Example 3]: the pIC50 is 5.51 in experiment [1], 5.68 at CCK receptor (Pancreas) and 5.07 in experiment [2].
The compound `O=C(O)CN1C(=O)C(NC(=O)Nc2cccc3ccccc23)CCc2ccccc21` (centres unmarked) [Example 9, 2,3,4,5-Tetrahydro-3-{[[(1-naphthalenyl)amino]carbonyl]amino}-2-oxo-1H-1-benzazepine-1-acetic acid] gave a pIC50 on CCK receptor (Pancreas) of 4.70.
In the case of `Cc1ccc(NC(=O)NC2CCc3ccccc3N(CC(=O)N3CCN(C)CC3)C2=O)cc1` (centres unmarked) [Example 14, 1-Methyl-4-{[2,3,4,5-tetra-hydro-3-{[[(4-methylphenyl)amino}carbonyl]amino}-2-oxo-1H-1-benzazepin-1-yl]acetyl}piperazine], the pIC50 was 4.89 on CCK receptor (Pancreas) and 4.11 in experiment [2].
For `c1cnc2c(c1)ccc1cccnc12` [o-phenanthroline, reference compound], the “Effect on the 125I-CCK receptor binding assay” value at CCK receptor (Pancreas) is reported as “no effect”.
As to `Cc1cccc(NC(=O)NC2CCc3ccccc3N(CC(=O)OC(C)(C)C)C2=O)c1` (centres unmarked) [Example 4], the pIC50 at CCK receptor (Pancreas) was 7.92.
The same measure, in the same setting: the value for `Cc1cccc(NC(=O)NC2CCc3ccccc3N(CC(=O)O)C2=O)c1` (centres unmarked) [Example 5, 2,3,4,5-Tetrahydro-3-{[[(3-methylphenyl)aminol]carbonyl]amino}-2-oxo-1H-1-benzazepine-1-acetic acid] was 6.03; that for `COc1cccc(NC(=O)NC2CCc3ccccc3N(CC(=O)OC(C)(C)C)C2=O)c1` (centres unmarked) [Example 2] was 4.85.
`CN1CCN(C(=O)CN2C(=O)C(NC(=O)Nc3cccc4ccccc34)CCc3ccccc32)CC1` (centres unmarked) [Example 10, 1-Methyl-4-{[2,3,4,5-tetra-hydro-3-{[[(1-naphthalenyl)amino]carbonyl]amino}-2-oxo-1H-1-benzazepin-1-yl]acetyl}piperazine] had a pIC50 at CCK receptor (Pancreas) of 4.49.
Take `Cc1ccc(NC(=O)NC2CCc3ccccc3N(CC(=O)N3CCCC3)C2=O)cc1` (centres unmarked) [Example 13, 1-{[2,3,4,5-Tetrahydro-3-{[[(4-methylphenyl)amino]carbonyl]amino}-2-oxo-1H-1-benzazepin-1-yl]aceyl}pyrrolidine]: the pIC50 on CCK receptor (Pancreas) was 5.80.
In the case of `Cc1cccc(NC(=O)N[C@@H]2N=C(c3ccccc3)c3ccccc3N(C)C2=O)c1` [Compound B, (R)-N-(2,3-dihydro-1-methyl-2-oxo-5-phenyl-1H-1,4-benzodiazepin-3-yl)-N'-(3-methylphenyl)urea], the “Difference in time spent in the black and white side” value in the experiment with anxiety (mice) (0.005 ug/kg) was “decreased the difference in time spent in the black and white side”. The “Preference for rearing in the black side” value in the experiment on anxiety (mice) (0.05 ug/kg) is given as “abolished the preference for rearing in the black side”. Also, the Active dose range in the experiment on anxiety (mice) (black/white exploration test, mice) fell in the range of 0.005 to 0.05 µg/kg.
